Test results reported in patent US10968203B2, “Pyrimidinyl-pyridyloxy-naphthyl compounds and methods of treating IRE1-related diseases and disorders” (Genentech, Inc., priority 2017, dated 2021).
Structures can show the parent of a compound that is named as a salt.

Test system: XBP1s-luc 293 LUC
Experiment: cellular PD assay, XBP1s-LUC reporter (Example 903)
Format: cell-based
Conditions: Table 1; read-out: XBP1s-luc 293 LUC (IC50)
Summary of the method: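 Cellular IRE1α pathway activity was quantified from the luciferase signal of an XBP1-Luc reporter, where the luciferase fusion is in frame and expressed only from the spliced XBP1 transcript.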

Compound | IC50
Cc1ccc2c(NC(=O)[C@@H]3C[C@H]3F)cccc2c1Oc1ncccc1-c1ccnc(N[C@H]2CCCNC2)n1 [Example 236, (1S,2R)-2-Fluoro-N-(6-methyl-5-((3-(2-(((S)-piperidin-3-yl)amino)pyrimidin-4-yl)pyridin-2-yl)oxy)naphthalen-1-yl)cyclopropane-1-carboxamide] | 174 nM
Cc1ccc2c(NC(=O)[C@@H]3CC34CC4)c(F)ccc2c1Oc1ncccc1-c1ccnc(N[C@@H]2CNC[C@H](C)C2)n1 (single isomer, unassigned) [Example 389] | 41.7 nM
Cc1ccc2c(NS(=O)(=O)CCC3CC3)cccc2c1Oc1ncccc1-c1ccnc(N[C@H]2CCCNC2)n1 [Example 129, (S)-2-Cyclopropyl-N-(6-methyl-5-((3-(2-(piperidin-3-ylamino)pyrimidin-4-yl)pyridin-2-yl)oxy)naphthalen-1-yl)ethanesulfonamide] | 301 nM
Cc1ccc2c(NC(=O)C3CCCC3(F)F)cccc2c1Oc1ncccc1-c1ccnc(N[C@H]2CCCNC2)n1 (stereo partly drawn) [Example 251, 2,2-Difluoro-N-(6-methyl-5-((3-(2-(((S)-piperidin-3-yl)amino)pyrimidin-4-yl)pyridin-2-yl)oxy)naphthalen-1-yl)cyclopentane-1-carboxamide] | 145 nM
Cc1ccc2c(NC(=O)[C@H]3CC3C3CC3)cccc2c1Oc1ncccc1-c1ccnc(N[C@H]2CCCNC2)n1 (single isomer, unassigned) [Example 273] | 305 nM
CO[C@@H](CNc1cccc2c(Oc3ncccc3-c3ccnc(N[C@H]4CCCNC4)n3)c(C)ccc12)C(F)(F)F [Example 326, 4-(2-((2-Methyl-5-(((S)-3,3,3-trifluoro-2-methoxypropyl)amino)naphthalen-1-yl)oxy)pyridin-3-yl)-N—((S)-piperidin-3-yl)pyrimidin-2-amine] | 28.4 nM
Cc1ccc2c(NCC[C@@H](C)O)cccc2c1Oc1ncccc1-c1ccnc(N[C@H]2CCCNC2)n1 (single isomer, unassigned) [Example 201] | 133 nM
CCS(=O)(=O)Nc1cccc2c(Oc3ncccc3-c3ccnc(N[C@H]4CCCNC4)n3)c(C)ccc12 [Example 103, (S)—N-(6-Methyl-5-((3-(2-(piperidin-3-ylamino)pyrimidin-4-yl)pyridin-2-yl)oxy)naphthalen-1-yl)ethanesulfonamide] | 255 nM
Cc1nc(Nc2cccc3c(Oc4ncccc4-c4ccnc(N[C@H]5CCCNC5)n4)c(C)ccc23)cs1 [Example 192, (S)-2-Methyl-N-(6-methyl-5-((3-(2-(piperidin-3-ylamino)pyrimidin-4-yl)pyridin-2-yl)oxy)naphthalen-1-yl)thiazol-4-amine] | 444 nM
Cc1ccc2c(N3CCC(C)S3(=O)=O)cccc2c1Oc1ncccc1-c1ccnc(N[C@H]2CCCNC2)n1 (mixture of isomers) [Example 245, 5-Methyl-2-(6-methyl-5-((3-(2-((S)-piperidin-3-ylamino)pyrimidin-4-yl)pyridin-2-yl)oxy)naphthalen-1-yl)isothiazolidine 1,1-dioxide] | 294 nM
Cc1ccc2c(NC(=O)[C@@H]3CC34CCC4)cccc2c1Oc1ncccc1-c1ccnc(N[C@H]2CCCNC2)n1 (single isomer, unassigned) [Example 340] | 17.7 nM
Cc1ccc2c(NS(=O)(=O)C3CC3)cccc2c1Oc1ncccc1-c1ccnc(N[C@H]2CCCNC2)n1 [Example 105, (S)—N-(6-Methyl-5-((3-(2-(piperidin-3-ylamino)pyrimidin-4-yl)pyridin-2-yl)oxy)naphthalen-1-yl)cyclopropanesulfonamide hydrochloride] | 493 nM
CCCS(=O)(=O)Nc1cccc2c(Oc3ncc(Br)cc3-c3ccnc(N[C@H]4CCCNC4)n3)c(C)ccc12 [Example 336, (S)-N-(5-((5-Bromo-3-(2-(piperidin-3-ylamino)pyrimidin-4-yl)pyridin-2-yl)oxy)-6-methylnaphthalen-1-yl)propane-1-sulfonamide] | 540 nM
Cc1ccc2c(NCCCF)cccc2c1Oc1ncccc1-c1ccnc(N[C@H]2CCCNC2)n1 [Example 241, (S)-4-(2-((5-((3-Fluoropropyl)amino)-2-methylnaphthalen-1-yl)oxy)pyridin-3-yl)-N-(piperidin-3-yl)pyrimidin-2-amine] | 141 nM
Cc1ccc2c(N3CC[C@H](CF)C3=O)cccc2c1Oc1ncccc1-c1ccnc(N[C@H]2CCCNC2)n1 [Example 316, (S)-3-(Fluoromethyl)-1-(6-methyl-5-((3-(2-(((S)-piperidin-3-yl)amino)pyrimidin-4-yl)pyridin-2-yl)oxy)naphthalen-1-yl)pyrrolidin-2-one] | 213 nM
Cc1ccc2c(NS(=O)(=O)Cc3cccc(F)c3F)c(F)ccc2c1Oc1ncccc1-c1ccnc(N[C@H]2CCCNC2)n1 [Example 189, (S)-1-(2,3-Difluorophenyl)-N-(2-fluoro-6-methyl-5-((3-(2-(piperidin-3-ylamino)pyrimidin-4-yl)pyridin-2-yl)oxy)naphthalen-1-yl)methanesulfonamide] | 5.07 nM
Cc1ccc2c(NS(=O)(=O)N(C)C)c(F)ccc2c1Oc1ncccc1-c1ccnc(N[C@H]2CCCNC2)n1 [Example 324, 4-[2-[[5-(Dimethylsulfamoylamino)-6-fluoro-2-methyl-1-naphthyl]oxy]-3-pyridyl]-2-[[(3S)-3-piperidyl]amino]pyrimidine] | 45.5 nM
Cc1ccc2c(NC(=O)[C@H]3CC34CC4)c(F)ccc2c1Oc1ncccc1-c1ccnc(N[C@@H]2CNC[C@H](C)C2)n1 (single isomer, unassigned) [Example 388] | 136 nM

Same assay, conditions: Table 2; read-out: XBP1s-luc 293 LUC (IC50)

Compound | IC50
Cc1ccc2c(NS(=O)(=O)CCC(F)F)c(F)ccc2c1Oc1ncccc1-c1ccnc(N[C@H]2CCCNC2)n1 [Example 398, (S)-3,3-Difluoro-N-(2-fluoro-6-methyl-5-((3-(2-(piperidin-3-ylamino)pyrimidin-4-yl)pyridin-2-yl)oxy)naphthalen-1-yl)propane-1-sulfonamide hydrochloride] | 22 nM
CCC(F)(F)CS(=O)(=O)Nc1c(F)ccc2c(Oc3ncccc3-c3ccnc(N[C@H]4CCCNC4)n3)c(C)ccc12 [Example 456, (S)-2,2-Difluoro-N-(2-fluoro-6-methyl-5-((3-(2-(piperidin-3-ylamino)pyrimidin-4-yl)pyridin-2-yl)oxy)naphthalen-1-yl)butane-1-sulfonamide hydrochloride] | 11 nM
Cc1ccc2c(NCC(=O)C3CC3)cccc2c1Oc1ncccc1-c1ccnc(N[C@H]2CCCNC2)n1 [Example 459, (S)-1-Cyclopropyl-2-((6-methyl-5-((3-(2-(piperidin-3-ylamino)pyrimidin-4-yl)pyridin-2-yl)oxy)naphthalen-1-yl)amino)ethanone hydrochloride] | 312 nM
Cc1cc(CS(=O)(=O)Nc2c(F)ccc3c(Oc4ncccc4-c4ccnc(N[C@H]5CCCNC5)n4)c(C)ccc23)no1 [Example 412, (S)—N-(2-Fluoro-6-methyl-5-((3-(2-(piperidin-3-ylamino)pyrimidin-4-yl)pyridin-2-yl)oxy)naphthalen-1-yl)-1-(5-methylisoxazol-3-yl)methanesulfonamide hydrochloride] | 7 nM
CCCCS(=O)(=O)Nc1c(F)ccc2c(Oc3ncccc3-c3ccnc(N[C@H]4CCCNC4)n3)c(C)ccc12 [Example 397, (S)—N-(2-Fluoro-6-methyl-5-((3-(2-(piperidin-3-ylamino)pyrimidin-4-yl)pyridin-2-yl)oxy)naphthalen-1-yl)butane-1-sulfonamide hydrochloride] | 34 nM
